From patent US12221453B2, “Substituted pyrazolo[5′,1′:2,3]pyrimido[5,4-b][1,4]oxazines as TYK2 inhibitors” (TAKEDA PHARMACEUTICAL COMPANY LIMITED, priority 2018, dated 2025)

test system: IL-12 induced STAT4 phosphorylation mediated by TYK2/JAK2; test: IL-12 induced pSTAT4 in human PBMC; assay type: cell-based; conditions: 1 hr compound, 1.7 ng/mL IL-12 for 30 minutes
Outline: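 Thawed human PBMC were pre-incubated with compound for 1 hr at 37 °C (0.1% DMSO), then stimulated with 1.7 ng/mL IL-12 for 30 minutes. Phospho-STAT4 and total STAT4 were measured in cell lysates by MSD.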

IC50, < 0.1 µM:
CNc1cc(Nc2cccn(C3COC3)c2=O)nc2c(C(=O)N[C@@H]3CC[C@@H]3F)cnn12 [Compound I-162], CNc1cc(Nc2cccn(C3CC(F)(F)C3)c2=O)nc2c(C(=O)N[C@@H]3C[C@H]3OC)cnn12 [Compound I-139], CNc1cc(Nc2cccn(C3COC3)c2=O)nc2c(C(=O)NC3CCC3(F)F)cnn12 (stereo not drawn) [Compound I-280], CNc1cc(-c2cn([C@H]3COC[C@H]3F)c3ncccc23)nc2c(C(=O)NC3CC[C@H]3O)cnn12 (stereo partly drawn) [Compound I-573], CNc1cc(Nc2cccn(-c3ncccc3F)c2=O)nc2c(C(=O)NC3CC[C@@]3(C)OC)cnn12 (stereo partly drawn) [Compound I-414], CNc1cc(-c2cn([C@@H]3CC3(F)F)c3ncccc23)nc2c(C(=O)NC3CC[C@H]3O)cnn12 (stereo partly drawn) [Compound I-548], CNc1cc(-c2cn([C@H]3CCC4(C3)OCCO4)c3ncccc23)nc2c(C(=O)N[C@H]3CC[C@@H]3OC)cnn12 [Compound I-808], CNc1cc(Nc2cccn(-c3ncccc3F)c2=O)nc2c(C(=O)N[C@@H]3CC[C@H]3OC)cnn12 [Compound I-266], CNc1cc(Nc2cccn([C@@H]3CCOC[C@@H]3OC)c2=O)nc2c(C(=O)NC3CCC3(F)F)cnn12 (stereo partly drawn) [Compound I-336], CC(C)n1cccc(Nc2nc3c(C(=O)N[C@H]4CCC4(F)F)cnn3c3c2OCCN3)c1=O [Compound I-766], CNc1cc(Nc2cccn([C@H]3C[C@H](F)C3)c2=O)nc2c(C(=O)N[C@H]3CC[C@@H]3F)cnn12 [Compound I-165], CNc1cc(-c2cn(CC(=O)N3CCCC3)c3ncccc23)nc2c(C(=O)N[C@H]3CC[C@@H]3OC)cnn12 [Compound I-965], CNc1cc(-c2cnc3n([C@H]4COC[C@@H]4OC)cccc2-3)nc2c(C(=O)NC3CC[C@@H]3OC)cnn12 (stereo partly drawn) [Compound I-880], CNc1cc(-c2cn([C@H]3CN(C)C[C@@H]3F)c3ncccc23)nc2c(C(=O)N[C@H]3CC[C@@H]3OC)cnn12 [Compound I-640], CNc1cc(Nc2cccn(-c3ccccn3)c2=O)nc2c(C(=O)NC3CC[C@@H]3F)cnn12 (stereo partly drawn) [Compound I-200], CNc1cc(-c2cn([C@@H]3COC[C@H]3O)c3ncccc23)nc2c(C(=O)N[C@@H]3CC[C@H]3OC)cnn12 [Compound I-629], CNc1cc(-c2cn([C@H]3CCOC[C@H]3OC)c3ncccc23)nc2c(C(=O)N[C@H]3CC[C@@H]3OC)cnn12 [Compound I-666], CNc1cc(Nc2cccn(-c3ccccn3)c2=O)nc2c(C(=O)N[C@@H]3CCC3(F)F)cnn12 [Compound I-320], CNc1cc(Nc2cccn([C@H]3[C@@H]4COC[C@@H]43)c2=O)nc2c(C(=O)N[C@@H]3CC[C@H]3F)cnn12 [Compound I-208], CNc1cc(-c2cn(C3CCOCC3)c3ncccc23)nc2c(C(=O)N[C@H]3CCC3(F)F)cnn12 [Compound I-699], CNc1cc(-c2cn([C@H]3COC[C@@H]3O)c3ncccc23)nc2c(C(=O)N[C@H]3CC[C@@H]3OC)cnn12 [Compound I-631], CNc1cc(Nc2cccn([C@H]3CC[C@@H]3OC)c2=O)nc2c(C(=O)NC3CC[C@H]3O)cnn12 (stereo partly drawn) [Compound I-239], CNc1cc(-c2cnc3n([C@H]4COC[C@@H]4OC)cccc2-3)nc2c(C(=O)N[C@@H]3CC[C@H]3OC)cnn12 [Compound I-881], CNc1cc(-c2cn([C@H]3COC[C@@H]3O)c3ncccc23)nc2c(C(=O)NC3CCC3(F)F)cnn12 (stereo partly drawn) [Compound I-695], CNc1cc(-c2cnc3n(C4CCOCC4)cccc2-3)nc2c(C(=O)N[C@H]3CC[C@@H]3OC)cnn12 [Compound I-1014], CNc1cc(-c2cn(C3CN(C)C3)c3ncccc23)nc2c(C(=O)NC3CC[C@@H]3OC)cnn12 (stereo partly drawn) [Compound I-608], CNc1cc(-c2cn([C@H]3CCOC[C@H]3OC)c3ncccc23)nc2c(C(=O)NC3CC[C@@H]3F)cnn12 (stereo partly drawn) [Compound I-546], CNc1ccc(-c2cc(NC)n3ncc(C(=O)N[C@H]4CC[C@H]4F)c3n2)n2ccnc12 [Compound I-784], CNc1cc(Nc2cccn([C@H]3CC[C@H](OC)CC3)c2=O)nc2c(C(=O)NC3CC[C@@H]3F)cnn12 (stereo partly drawn) [Compound I-224], CNc1cc(-c2cnc3n([C@@H]4COC[C@H]4O)cccc2-3)nc2c(C(=O)N[C@H]3CCC3(F)F)cnn12 [Compound I-902], CNc1cc(-c2cn([C@H]3COC[C@@H]3OC)c3ncccc23)nc2c(C(=O)N[C@H]3CC[C@H]3F)cnn12 [Compound I-529], CNc1cc(-c2cnc3n([C@H]4COC[C@@H]4O)cccc2-3)nc2c(C(=O)NC3CCC3(F)F)cnn12 (stereo partly drawn) [Compound I-898], CNc1cc(Nc2cccn([C@H]3[C@@H]4COC[C@@H]43)c2=O)nc2c(C(=O)NC3CC[C@@H]3F)cnn12 (stereo partly drawn) [Compound I-206], CNc1cc(-c2cn([C@H]3COC[C@@H]3OC)c3ncccc23)nc2c(C(=O)N[C@H]3CC[C@@H]3F)cnn12 [Compound I-523], CNc1cc(Nc2cccn([C@H]3CC[C@H](OC)CC3)c2=O)nc2c(C(=O)N[C@@H]3CC[C@@]3(C)OC)cnn12 [Compound I-428], CNc1cc(Nc2cccn([C@H]3CCC[C@@](C)(O)C3)c2=O)nc2c(C(=O)N[C@@H]3C[C@@H]3F)cnn12 [Compound I-129], CNc1cc(-c2cn([C@H]3CCOC[C@@H]3F)c3ncccc23)nc2c(C(=O)N[C@H]3CC[C@@H]3OC)cnn12 [Compound I-802], CNc1cc(-c2cn([C@H]3C[C@@H](O)C3)c3ncccc23)nc2c(C(=O)NC3CC3)cnn12 [Compound I-495], CNc1cc(Nc2cccn([C@@H]3CC[C@H]3OC)c2=O)nc2c(C(=O)N[C@H]3CC[C@H]3O)cnn12 [Compound I-243], CNc1cc(-c2cn(C3COC3)c3ncccc23)nc2c(C(=O)N[C@H]3CC[C@@H]3O)cnn12 [Compound I-558], CNc1cc(Nc2cccn(C3CCN(CCF)CC3)c2=O)nc2c(C(=O)N[C@H]3CC[C@@H]3F)cnn12 [Compound I-237], CNc1cc(-c2cn([C@@H]3CCC4(C3)OCCO4)c3ncccc23)nc2c(C(=O)N[C@H]3CC[C@@H]3OC)cnn12 [Compound I-806], CNc1cc(Nc2cccn(C3CCN(CCF)CC3)c2=O)nc2c(C(=O)NC3CC[C@@H]3F)cnn12 (stereo partly drawn) [Compound I-236], CNc1cc(Nc2cccn(C3CCC[C@@](C)(OC)C3)c2=O)nc2c(C(=O)N[C@@H]3C[C@@H]3F)cnn12 (stereo partly drawn) [Compound I-130], CNc1cc(-c2cn([C@H]3COC[C@H]3F)c3ncccc23)nc2c(C(=O)N[C@H]3CC[C@@H]3OC)cnn12 [Compound I-625], CNc1cc(Nc2cccn(C3CCOCC3)c2=O)nc2c(C(=O)N[C@@H]3CC[C@H]3F)cnn12 [Compound I-190], CNc1cc(-c2cnc3n([C@H]4CCOC[C@@H]4O)cccc2-3)nc2c(C(=O)N[C@@H]3C[C@@H]3F)cnn12 [Compound I-825], CNc1cc(Nc2cccn([C@H]3[C@@H]4COC[C@@H]43)c2=O)nc2c(C(=O)N[C@@H]3CC[C@H]3OC)cnn12 [Compound I-262], O=C(N[C@H]1CCC1(F)F)c1cnn2c3c(c(-c4cn([C@H]5C[C@H](O)C5)c5ncccc45)nc12)OCCN3 [Compound I-776], CNc1cc(Nc2cccn(-c3ncccc3F)c2=O)nc2c(C(=O)N[C@@H]3CC[C@@]3(C)OC)cnn12 [Compound I-415], CNc1cc(Nc2cccn([C@@H]3CCCOC3)c2=O)nc2c(C(=O)N[C@@H]3CC[C@H]3F)cnn12 [Compound I-196], CNc1cc(Nc2cccn([C@H]3CC[C@@H]3O)c2=O)nc2c(C(=O)N[C@@H]3CC[C@@]3(C)OC)cnn12 [Compound I-377], CNc1cc(Nc2cccn(C3CCOCC3)c2=O)nc2c(C(=O)NC3CC[C@]3(C)O)cnn12 (stereo partly drawn) [Compound I-348], CNc1ccc(-c2cc(NC)n3ncc(C(=O)N[C@@H]4CC[C@H]4OC)c3n2)n2ccnc12 [Compound I-490], CNc1cc(-c2cn([C@H]3CCN(C)C3)c3ncccc23)nc2c(C(=O)NC3CC[C@@H]3OC)cnn12 (stereo partly drawn) [Compound I-618], CNc1cc(Nc2cccn(C(C)C)c2=O)nc2c(C(=O)N[C@@H]3CC[C@@]3(C)O)cnn12 [Compound I-341], CNc1cc(-c2cnc3n([C@H]4CCOC4)cccc2-3)nc2c(C(=O)N[C@H]3CC[C@@H]3OC)cnn12 [Compound I-1002], CO[C@@H]1CC[C@H]1NC(=O)c1cnn2c3c(c(Nc4cccn(C(C)C)c4=O)nc12)OCCN3 [Compound I-760], CNc1cc(Nc2cccn([C@H]3C[C@@H](OC)C3)c2=O)nc2c(C(=O)NC3CCC3(F)F)cnn12 (stereo partly drawn) [Compound I-295], CNc1cc(-c2cnc3n([C@H]4COC[C@@H]4OC)cccc2-3)nc2c(C(=O)N[C@H]3CC[C@H]3F)cnn12 [Compound I-839]
